Series [1] addresses T1, casein kinase 1 epsilon (CK1 epsilon) (Homo sapiens, UniProt P49674).
T1 construct: Invitrogen Corporation (as an alternative)
Kind of series: Filter-plate assay of ATP-33P for CK1 epsilon inhibitors (phosphorylation of casein). The format is biochemical. The settings on record: casein substrate, ATP-33P with 10 μM cold ATP, 2 hours at ambient temperature. The method, then:
The capacity of the compounds of the invention to inhibit the phosphorylation of casein by casein kinase 1 epsilon and delta may be evaluated according to the procedure described in US 2005/0131012.
Filter-Plate Assay of ATP-^33P for the Screening of CK1 Epsilon Inhibitors:
The effect of the compounds on inhibition of the phosphorylation of casein by the enzyme casein kinase 1 epsilon (CK1 epsilon) is measured, using a casein assay with filtration of ATP-^33P in vitro.
Casein kinase 1 epsilon (0.58 mg/ml) is obtained via fermentation and purification processes performed according to methods that are well known to those skilled in the art, or may also be obtained from Invitrogen Corporation™ (human CK1 epsilon).
The compounds are tested at five different concentrations so as to generate IC50 values, i.e. the concentration at which a compound is capable of inhibiting the enzymatic activity by 50%, or alternatively the percentage of inhibition at a concentration of 10 micromolar.
“U”-bottomed Falcon plates are prepared by placing 5 μL of solutions of the compounds according to the invention at concentrations of 10, 1, 0.1, 0.01 or 0.001 μM in various wells. The solutions of the compounds according to the invention at these various concentrations are prepared by diluting in a test buffer (50 mM Tris, pH 7.5, […], 2 mM DTT and 1 mM EGTA) a stock solution in DMSO at a concentration of 10 mM. Next, 5 μL of dephosphorylated casein are added to a final concentration of 0.2 μg/μL, 20 μl of CK1 epsilon to a final concentration of 3 ng/μl, and 20 μl of ATP-^33P to a final concentration of 0.02 μCi/μl mixed with cold ATP (10 μM final—approximately 2×10^6 CPM per well). The final total test volume per well is equal to 50 μl.
The “U”-bottomed Falcon® test plate mentioned above is vortexed, and then incubated at ambient temperature for 2 hours. After 2 hours, the reaction is stopped by adding an ice-cold solution of 65 μl of ATP (2 mM) prepared in test buffer.
100 μl of the reaction mixture are then transferred from the “U”-bottomed Falcon® plate into Millipore® MAPH filter plates, preimpregnated with 25 μl of ice-cold 100% TCA. […]
The plates are left to dry overnight at ambient temperature. […] The radiation emitted by each well is then measured for 2 minutes in a Packard® Topcount NXT scintillation counter, in which the values of CPM/well are measured.
The percentage inhibition of the capacity of the enzyme to phosphorylate the substrate (casein) is determined for each concentration of compound tested. These inhibition data expressed as percentages are used to calculate the IC50 value for each compound compared with the controls.
The kinetic studies determined the KM value for ATP as being 21 μM in this test system.

T1 sequence (P49674 whole entry): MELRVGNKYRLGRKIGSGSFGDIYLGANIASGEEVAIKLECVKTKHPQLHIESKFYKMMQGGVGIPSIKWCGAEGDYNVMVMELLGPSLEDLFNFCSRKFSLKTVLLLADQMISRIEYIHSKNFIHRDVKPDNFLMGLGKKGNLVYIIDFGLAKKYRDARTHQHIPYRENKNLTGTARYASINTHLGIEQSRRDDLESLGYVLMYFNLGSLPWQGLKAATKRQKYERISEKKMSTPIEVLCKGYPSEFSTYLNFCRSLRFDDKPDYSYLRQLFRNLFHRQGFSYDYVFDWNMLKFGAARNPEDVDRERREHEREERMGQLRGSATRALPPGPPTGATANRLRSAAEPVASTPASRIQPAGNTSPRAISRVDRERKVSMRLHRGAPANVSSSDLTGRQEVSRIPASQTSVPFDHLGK

`Fc1ccc(-c2nc3ccc(N4CCC(N5CCCC5)CC4)nn3c2-c2ccnc3[nH]ccc23)cc1` [Compound 36, 2-(4-Fluorophenyl)-6-(4-pyrrolidin-1-ylpiperidin-1-yl)-3-(1H-pyrrolo[2,3-b]pyridin-4-yl)imidazo[1,2-b]pyridazine]: the melting point is 261 to 264 °C. Moreover, in series [1], the 50% inhibitory concentration (IC50) was 5 to 8 nM.

Source of the values: patent US8546395B2, “6-cycloamino-3-(1H-pyrrolo[2,3-b]pyridin-4-yl)imidazo[1,2-b]pyridazine derivatives, preparation thereof and therapeutic use thereof” (Sanofi, priority 2008, dated 2013).
